Assays:
[1] = molecular target: T1, p38α kinase (Homo sapiens, UniProt Q16539); test: p38α assay (ADP release coupled to NADH oxidation); type: biochemical; conditions: p38 kinase IC50 class, Table 1; read-out: p38α inhibition
T1 construct: purchased Upstate
Description: The p38α assay employed is based on measurement of ADP released in the reaction of interest through NADH oxidation obtained by coupling with pyruvate kinase and lactate dehydrogenase reactions. The assays were performed in 384-well UV-plates. The final volume was 25 uL prepared from the addition of 2.5 uL compound dissolved in 10% DMSO, 17.5 uL of assay buffer and 5 uL of ATP. Assay buffer contains the following reagents to give final concentration in the assay: 25 mM HEPES, 20 mM 2-glycerophosphate, pH 7.6, 10 mM MgCl2, 0.1 mM sodium orthovanadate, 0.5 mM phosphoenolpyruvate, 0.12 mM NADH, 3.1 mg/ml LDH, 6.67 mg/ml pyruvate kinase, 0.25 mM peptide substrate, 2 mM DTT, 0.005% Tween 80 and 20 nM p38α kinase from Upstate. Test compounds are preincubated with p38α kinase for 60 min and the reaction started by addition of ATP to 0.15 mM final concentration. Reaction rates were measured at 340 nm using SpectraMax plate-reading spectrophotometer for 10 min at 37° C. Inhibition data were analyzed by non-linear least-squares regression using SigmaPlot.

[2] = molecular target: human recombinant Jnk2 (Homo sapiens, UniProt P45984); test: JNK enzymatic assay (33P incorporation into peptide); type: biochemical; conditions: JNK2 kinase IC50 class, Table 1
Sequence of human recombinant Jnk2 (P45984 whole entry): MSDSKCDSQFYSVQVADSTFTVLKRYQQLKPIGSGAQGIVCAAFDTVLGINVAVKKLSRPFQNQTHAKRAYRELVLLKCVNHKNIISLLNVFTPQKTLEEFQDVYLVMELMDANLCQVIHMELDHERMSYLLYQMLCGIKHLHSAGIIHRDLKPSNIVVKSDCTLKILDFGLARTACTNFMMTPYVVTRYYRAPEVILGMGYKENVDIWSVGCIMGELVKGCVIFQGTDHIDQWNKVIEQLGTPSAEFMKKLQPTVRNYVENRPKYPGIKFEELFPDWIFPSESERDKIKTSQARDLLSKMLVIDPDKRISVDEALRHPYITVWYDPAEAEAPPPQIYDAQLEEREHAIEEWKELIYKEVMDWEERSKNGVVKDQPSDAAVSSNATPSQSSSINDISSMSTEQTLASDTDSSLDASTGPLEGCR
Description: In a final reaction volume of 20 μL, 5 nM human recombinant Jnk2 was incubated in the absence or presence of putative JNK inhibitors in increasing concentrations with 25 mM HEPES pH 7.5, 20 mM p-glycerophosphate, 10 mM MgCl2, 0.1 mM sodium orthovanadate, 0.005% Tween® 80, 10 uM [γ-^33P-ATP], 500 μM IPTTPITTTYFFFKKK peptide substrate and 2 mM DTT. The reaction was initiated by the addition of the [g-^33P-ATP]. After incubation for 20 minutes at 30° C., the aliquots were transferred onto P30/GF filtermats (PerkinElmer). Each filtermat washed four times in 100 ml 0.5% phosphoric acid, 0.5 mM pyrophosphate, then twice in 50 ml ethanol, dried and sealed into bag containing 5 ml of OptiPhase “SuperMix” liquid scintillation cocktail (PerkinElmer). Radioactivity incorporated into peptide was quantified on Trilux 1450 Microbeta plate-reader. IC50 values were calculated using SigmaPlot.

T1 sequence (Q16539 whole entry): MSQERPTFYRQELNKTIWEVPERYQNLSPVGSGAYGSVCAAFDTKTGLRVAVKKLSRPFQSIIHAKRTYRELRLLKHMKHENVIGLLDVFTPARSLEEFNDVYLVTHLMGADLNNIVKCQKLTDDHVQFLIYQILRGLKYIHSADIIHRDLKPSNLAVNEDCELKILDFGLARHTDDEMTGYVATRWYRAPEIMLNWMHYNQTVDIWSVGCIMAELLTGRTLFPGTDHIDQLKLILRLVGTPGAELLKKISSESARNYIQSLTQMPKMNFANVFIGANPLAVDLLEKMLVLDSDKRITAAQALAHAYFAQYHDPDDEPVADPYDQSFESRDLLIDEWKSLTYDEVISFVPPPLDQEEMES

SMILES: CCOC(=O)c1cc2cnnc(Nc3cc(C(=O)NC4CC4)ccc3OC)n2c1C [Compound 1, 4-(5-Cyclopropylcarbamoyl-2-methoxy-phenylamino)-6-methyl-pyrrolo[1,2-d][1,2,4]triazine-7-carboxylic acid ethyl ester]
- IC50 [1]: 1000 to 10000 nM
- IC50 [2]: 1000 to 10000 nM

SMILES: CCOC(=O)c1cc2cnnc(Nc3cc(-c4nnc[nH]4)ccc3C)n2c1C [Compound 2, 4-[2-Methyl-5-(4H-[1,2,4]triazol-3-yl)-phenylamino]-6-methyl-pyrrolo[1,2-d][1,2,4]triazine-7-carboxylic acid ethyl ester]
- IC50 [1]: 1000 to 10000 nM

SMILES: CCOC(=O)c1cc2cnnc(Nc3cc(C(=O)NC4CC4)ccc3C)n2c1C [Compound 3, 4-(5-Cyclopropylcarbamoyl-2-methyl-phenylamino)-6-methyl-pyrrolo[1,2-d][1,2,4]triazine-7-carboxylic acid ethyl ester]
- IC50 [1]: < 1000 nM
- IC50 [2]: < 1000 nM

SMILES: Cc1ccc(C(=O)NC2CC2)cc1Nc1nncc2cc(C(=O)NCc3ccccc3)c(C)n12 [Compound 4, 4-(5-Cyclopropylcarbamoyl-2-methyl-phenylamino)-6-methyl-pyrrolo[1,2-d][1,2,4]triazine-7-carboxylic acid benzylamide]
- IC50 [1]: < 1000 nM
- IC50 [2]: < 1000 nM

SMILES: CCOC(=O)Nc1ccc(C)c(Nc2nncc3cc(C(=O)OCC)c(C)n23)c1 [Compound 5, 4-(5-Ethoxycarbonylamino-2-methyl-phenylamino)-6-methyl-pyrrolo[1,2-d][1,2,4]triazine-7-carboxylic acid ethyl ester]
- IC50 [1]: < 1000 nM
- IC50 [2]: < 1000 nM

SMILES: CCOC(=O)c1cc2cnnc(Nc3ccc(Cl)cc3)n2c1C [Compound 6]
- IC50 [1]: 1000 to 10000 nM
- IC50 [2]: 1000 to 10000 nM

SMILES: CNC(=O)c1cc2cnnc(Nc3cc(C(=O)NC4CC4)ccc3C)n2c1C [Compound 7]
- IC50 [1]: < 1000 nM
- IC50 [2]: < 1000 nM

SMILES: Cc1ccc(C(=O)NC2CC2)cc1Nc1nncc2cc(C(=O)NC3CC3)c(C)n12 [Compound 8]
- IC50 [1]: < 1000 nM
- IC50 [2]: 1000 to 10000 nM

SMILES: CCNC(=O)c1ccc(C)c(Nc2nncc3cc(C(=O)OCC)c(C)n23)c1 [Compound 9]
- IC50 [1]: 1000 to 10000 nM
- IC50 [2]: 1000 to 10000 nM

SMILES: CCOC(=O)c1cc2cnnc(Nc3ccc(C(=O)OC)cc3)n2c1C [Compound 10]
- IC50 [2]: 1000 to 10000 nM

SMILES: CCOC(=O)c1cc2cnnc(Nc3cccc(C(=O)NC4CC4)c3)n2c1C [Compound 11]
- IC50 [1]: 1000 to 10000 nM
- IC50 [2]: 1000 to 10000 nM

SMILES: CCOC(=O)c1cc2cnnc(Nc3cc(C(=O)Nc4ccccc4)ccc3C)n2c1C [Compound 12]
- IC50 [1]: 1000 to 10000 nM
- IC50 [2]: 1000 to 10000 nM

SMILES: CCOC(=O)c1cc2cnnc(Nc3cc(-c4ncco4)ccc3C)n2c1C [Compound 13]
- IC50 [2]: 1000 to 10000 nM

SMILES: CCOC(=O)c1cc2cnnc(Nc3cc(NC(=O)OC(C)C)ccc3C)n2c1C [Compound 14]
- IC50 [1]: 1000 to 10000 nM
- IC50 [2]: 1000 to 10000 nM

SMILES: CCOC(=O)c1cc2cnnc(Nc3ccccc3)n2c1C [Compound 15]
- IC50 [1]: 1000 to 10000 nM
- IC50 [2]: 1000 to 10000 nM

SMILES: CCOC(=O)c1cc2cnnc(Nc3ccccc3C)n2c1C [Compound 16]
- IC50 [1]: 1000 to 10000 nM
- IC50 [2]: 1000 to 10000 nM

SMILES: CCOC(=O)c1cc2cnnc(Nc3cccc(C(=O)O)c3)n2c1C [Compound 17]
- IC50 [2]: 1000 to 10000 nM

SMILES: CCOC(=O)c1cc2cnnc(Nc3cc(C(=O)O)ccc3C)n2c1C [Compound 18]
- IC50 [1]: 1000 to 10000 nM
- IC50 [2]: 1000 to 10000 nM

SMILES: CCOC(=O)c1cc2cnnc(Nc3cc(NC(C)=O)ccc3C)n2c1C [Compound 19]
- IC50 [1]: > 10000 nM
- IC50 [2]: 1000 to 10000 nM

SMILES: CCOC(=O)c1cc2cnnc(Nc3cc(C(=O)NCc4ccccc4)ccc3C)n2c1C [Compound 20]
- IC50 [1]: 1000 to 10000 nM
- IC50 [2]: 1000 to 10000 nM

SMILES: CCOC(=O)c1cc2cnnc(Nc3cc(C(=O)NC(C)C)ccc3C)n2c1C [Compound 21]
- IC50 [2]: > 10000 nM

SMILES: CCOC(=O)c1cc2cnnc(Nc3cc(C(=O)N4CCOCC4)ccc3C)n2c1C [Compound 22]
- IC50 [2]: > 10000 nM

SMILES: CCOC(=O)c1cc2cnnc(Nc3cc(C(N)=O)ccc3C)n2c1C [Compound 23]
- IC50 [2]: > 10000 nM

SMILES: CCOC(=O)c1cc2cnnc(Nc3cc(N)ccc3C)n2c1C [Compound 24]
- IC50 [1]: > 10000 nM
- IC50 [2]: > 10000 nM

From patent US7855288B2, “Pyrrolo [1,2-d] [1,2-4] triazine as inhibitors of c-Jun N terminal kinases (JNK) and p-38 kinases” (Novartis AG, priority 2004, dated 2010)
